We go through two compounds from patent US3991202A, “Imidazolium salts” (Janssen Pharmaceutica N.V., priority 1974, dated 1976).

Holding throughout (format): cell-based
The subject of one assay is Erysipelothrix insidiosa. In words: Antibacterial growth inhibition in phenol red dextrose broth. Conditions: Erysipelothrix rhusiopathiae, 168 h; E. ins.; tested at 100, 10, 1 μg/ml; read-out: Concentration in μ g for 100% Growth Inhibition. The gist of the method: (§1)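 Bacteria grown in phenol red dextrose broth with imidazolium salt at 100, 10 and 1 μg/ml, inoculated with a loop from a 24 hour broth culture.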

The test system of a further assay is Streptococcus pyogenes. The assay is described as above. Conditions: 168 h, Strep., tested at 100, 10, 1 μg/ml, read-out: Concentration in μ g for 100% Growth Inhibition. The gist of the method: as §1
The subject of assay [1] is Staphylococcus hemolyticus. Described as above. The conditions noted are these: 168 h, Staph., tested at 100, 10, 1 μg/ml, read-out: Concentration in μ g for 100% Growth Inhibition. The gist of the method:
as §1

The test system of assay [2] is Salmonella pullorum gallinarum. Described as above. Conditions: Salmonella enterica, 168 h; Sp. G.; tested at 100, 10, 1 μg/ml; read-out: Concentration in μ g for 100% Growth Inhibition. The gist of the method:
as §1

The next assay deals with Escherichia coli. The description is as above. Conditions: 168 h, E. coli, tested at 100, 10, 1 μg/ml, read-out: Concentration in μ g for 100% Growth Inhibition. Summed up: as §1
The test system of another assay is Pseudomonas aeruginosa. The assay is described as above. Conditions: 168 h, Ps. aer., tested at 100, 10, 1 μg/ml, read-out: Concentration in μ g for 100% Growth Inhibition. The gist of the method:
as §1

A further assay has as its system Cryptococcus neoformans. In words: Antifungal growth inhibition in Sabouraud's liquid medium. The conditions noted are these: Cryptococcus neoformans, 336 h; Cr.n.; tested at 100, 10, 1 μg/ml; read-out: Concentrations in μg/ml for 100% Inhibition of Growth. The gist of the method:
(§2)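 Compounds were tested in Sabouraud's liquid medium at final 100, 10 and 1 μg/ml against ethanol-matched controls; filamentous fungi were inoculated as 2 mm blocks and yeasts as 0.05 ml of 3-day culture, with incubation at 25° C for 14 days.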

The next assay deals with Microsporum canis. The description is as above. Conditions: Microsporum canis, 336 h, M.c., read-out: Concentrations in μg/ml for 100% Inhibition of Growth. The gist of the method:
as §2

For assay [3], the system named is Ctenomyces mentagrophytes. The assay is described as above. Conditions: Trichophyton mentagrophytes, 336 h; Ct.m.; tested at 100, 10, 1 μg/ml; read-out: Concentrations in μg/ml for 100% Inhibition of Growth. Summed up: as §2
The test system of the next assay is Trichophyton rubrum. Described as above. The conditions noted are these: Trichophyton rubrum, 336 h; Tr.r.; tested at 100, 10, 1 μg/ml; read-out: Concentrations in μg/ml for 100% Inhibition of Growth. Summed up:
as §2

Each structure is given as a SMILES string. Where two headings read alike, the source gives them in different places. Some results are limits rather than exact numbers.

On to `O=C(C[n+]1ccn(CC(OCc2ccc(Cl)cc2Cl)c2ccc(Cl)cc2Cl)c1)Nc1ccc(Cl)cc1Cl` (stereo not drawn) [CH2CONHC6H32,4(Cl)2, 1-[2,4-dichloro-β-(2,4-dichlorobenzyloxy)phenethyl]-3-[N-(2,4-dichlorophenyl)carbamoylmethyl]imidazolium chloride hydrate], for which the MIC with Erysipelothrix insidiosa stood at 1 µg/mL; in the assay with Streptococcus pyogenes, 1 µg/mL; in assay [1] it was 1 µg/mL; in [2], 10 µg/mL; in the assay on Escherichia coli, 10 µg/mL; in the assay with Pseudomonas aeruginosa, 100 µg/mL. The MIC in the assay with Cryptococcus neoformans amounted to 1 µg/mL; with Microsporum canis (tested at 100, 10, 1 μg/ml), 10 µg/mL; in assay [3], 10 µg/mL; in the assay on Trichophyton rubrum, 10 µg/mL.
In the case of `O=C(C[n+]1ccn(CC(OCc2ccc(Cl)cc2)c2ccc(Cl)cc2)c1)Nc1ccc(F)cc1` (stereo not drawn) [pClC6H4/CH2C6H4pCl/CH2CONHC6H4pF, 1-[p-Chloro-β-(p-chlorobenzyloxy)phenethyl]-3-[N-(p-fluorophenyl)carbamoylmethyl]imidazolium chloride], the MIC in the assay on Erysipelothrix insidiosa is 10 µg/mL; with Streptococcus pyogenes, 1 µg/mL; in assay [1] it was 10 µg/mL; in assay [2] it was 10 µg/mL; in the assay on Escherichia coli it was 100 µg/mL; in the assay on Pseudomonas aeruginosa, 100 µg/mL. Besides, the MIC was 100 µg/mL in the assay on Cryptococcus neoformans, more than 100 µg/mL with Microsporum canis (growth observed at 100 μg/ml), 1 µg/mL in assay [3] and 10 µg/mL with Trichophyton rubrum.
